In paper PMC5869712 (Scientific Reports, 2018):

How the values were obtained:
IKKα = biological target: T1, IKKα (Homo sapiens, UniProt O15111); assay: Eurofins Kinase Profiler panel; type: biochemical; settings: read-out: % inhibition (1μM), DMSO control=100%, lower=stronger
T1 construct: purchased Eurofins KinaseProfiler (Eurofins Pharma Discovery Services UK, Dundee); JAK3 also ChemPartner

JNK2α2 = biological target: T2, JNK2α2 (Homo sapiens, UniProt P45984); assay: Eurofins Kinase Profiler panel; type: biochemical; settings: read-out: % inhibition (1μM), DMSO control=100%, lower=stronger
T2 construct: purchased Eurofins KinaseProfiler (Eurofins Pharma Discovery Services UK, Dundee); JAK3 also ChemPartner

MEK1 = biological target: T3, MEK1 (Homo sapiens, UniProt Q02750); assay: Eurofins Kinase Profiler panel; type: biochemical; settings: read-out: % inhibition (1μM), DMSO control=100%, lower=stronger
T3 construct: purchased Eurofins KinaseProfiler (Eurofins Pharma Discovery Services UK, Dundee); JAK3 also ChemPartner

SD rats = assay: Acute toxicity in SD rats, oral; settings: SD rats; oral 0.4 g/kg to 2.0 g/kg
[1] = Acute toxicity in SD rats, oral; settings: Sprague Dawley, rat, in vivo, po
DDR1 = biological target: T4, DDR1 (Homo sapiens, UniProt Q08345); assay: Eurofins Kinase Profiler panel; type: biochemical; settings: read-out: % inhibition (1μM), DMSO control=100%, lower=stronger
T4 construct: purchased Eurofins KinaseProfiler (Eurofins Pharma Discovery Services UK, Dundee); JAK3 also ChemPartner
Description: (§1) The assay protocol guides are commercially available from ChemPartner.

Ret = biological target: T5, Ret (Homo sapiens, UniProt P07949); assay: Eurofins Kinase Profiler panel; type: biochemical; settings: read-out: % inhibition (1μM), DMSO control=100%, lower=stronger
T5 construct: purchased Eurofins KinaseProfiler (Eurofins Pharma Discovery Services UK, Dundee); JAK3 also ChemPartner
Description: as §1

Syk = biological target: T6, Syk (Homo sapiens, UniProt P43405); assay: Eurofins Kinase Profiler panel; type: biochemical; settings: read-out: % inhibition (1μM), DMSO control=100%, lower=stronger
T6 construct: Eurofins Pharma Discovery Services UK Limited (Kinase Profiler service)
Description: as §1

ROCK-II = biological target: T7, ROCK-II (Homo sapiens, UniProt O75116); assay: Eurofins Kinase Profiler panel; type: biochemical; settings: read-out: % inhibition (1μM), DMSO control=100%, lower=stronger
T7 construct: purchased Eurofins KinaseProfiler (Eurofins Pharma Discovery Services UK, Dundee); JAK3 also ChemPartner
Description: as §1

CDK7 = biological target: T8, CDK7 (Homo sapiens, UniProt P50613); assay: Eurofins Kinase Profiler panel; type: biochemical; settings: read-out: % inhibition (1μM), DMSO control=100%, lower=stronger
T8 construct: purchased Eurofins KinaseProfiler (Eurofins Pharma Discovery Services UK, Dundee); JAK3 also ChemPartner
Description: as §1

CaMKIIβ = biological target: T9, CaMKIIβ (Homo sapiens, UniProt Q13554); assay: Eurofins Kinase Profiler panel; type: biochemical; settings: read-out: % inhibition (1μM), DMSO control=100%, lower=stronger
T9 construct: purchased Eurofins KinaseProfiler (Eurofins Pharma Discovery Services UK, Dundee); JAK3 also ChemPartner
Description: as §1

Pim-1 = biological target: T10, Pim-1 (Homo sapiens, UniProt P11309); assay: Eurofins Kinase Profiler panel; type: biochemical; settings: read-out: % inhibition (1μM), DMSO control=100%, lower=stronger
T10 construct: purchased Eurofins Pharma Discovery Services UK Limited (Kinase Profiler screening platform)
Description: as §1

SAPK2a = biological target: T11, SAPK2a (Homo sapiens, UniProt Q16539); assay: Eurofins Kinase Profiler panel; type: biochemical; settings: read-out: % inhibition (1μM), DMSO control=100%, lower=stronger
T11 construct: purchased Eurofins KinaseProfiler (Eurofins Pharma Discovery Services UK, Dundee); JAK3 also ChemPartner
Description: as §1

DYRK1A = biological target: T12, DYRK1A (Homo sapiens, UniProt Q13627); assay: Eurofins Kinase Profiler panel; type: biochemical; settings: read-out: % inhibition (1μM), DMSO control=100%, lower=stronger
T12 construct: purchased Eurofins KinaseProfiler (Eurofins Pharma Discovery Services UK, Dundee); JAK3 also ChemPartner
Description: as §1

PKBα = biological target: T13, PKBα (Homo sapiens, UniProt P31749); assay: Eurofins Kinase Profiler panel; type: biochemical; settings: read-out: % inhibition (1μM), DMSO control=100%, lower=stronger
T13 construct: purchased Eurofins KinaseProfiler (Eurofins Pharma Discovery Services UK, Dundee); JAK3 also ChemPartner
Description: as §1

PDGFRα = biological target: T14, PDGFRα (Homo sapiens, UniProt P16234); assay: Eurofins Kinase Profiler panel; type: biochemical; settings: read-out: % inhibition (1μM), DMSO control=100%, lower=stronger
T14 construct: purchased Eurofins Pharma Discovery Services UK Limited (Kinase Profiler screening platform)
Description: as §1

NEK2 = biological target: T15, NEK2 (Homo sapiens, UniProt P51955); assay: Eurofins Kinase Profiler panel; type: biochemical; settings: read-out: % inhibition (1μM), DMSO control=100%, lower=stronger
T15 construct: purchased Eurofins Pharma Discovery Services UK Limited (Kinase Profiler screening platform)
Description: as §1

PRK2 = biological target: T16, PRK2 (Homo sapiens, UniProt Q16513); assay: Eurofins Kinase Profiler panel; type: biochemical; settings: read-out: % inhibition (1μM), DMSO control=100%, lower=stronger
T16 construct: purchased Eurofins KinaseProfiler (Eurofins Pharma Discovery Services UK, Dundee); JAK3 also ChemPartner
Description: as §1

CLK2 = biological target: T17, CLK2 (Homo sapiens, UniProt P49760); assay: Eurofins Kinase Profiler panel; type: biochemical
T17 construct: Eurofins Pharma Discovery Services UK Limited (Kinase Profiler service)
Description: as §1

SAPK3 = biological target: T18, SAPK3 (Homo sapiens, UniProt P53778); assay: Eurofins Kinase Profiler panel; type: biochemical; settings: read-out: % inhibition (1μM), DMSO control=100%, lower=stronger
T18 construct: purchased Eurofins KinaseProfiler (Eurofins Pharma Discovery Services UK, Dundee); JAK3 also ChemPartner
Description: as §1

PKCζ = biological target: T19, PKCζ (Homo sapiens, UniProt Q05513); assay: Eurofins Kinase Profiler panel; type: biochemical; settings: read-out: % inhibition (1μM), DMSO control=100%, lower=stronger
T19 construct: purchased Eurofins KinaseProfiler (Eurofins Pharma Discovery Services UK, Dundee); JAK3 also ChemPartner
Description: as §1

MSK1 = biological target: T20, MSK1 (Homo sapiens, UniProt O75582); assay: Eurofins Kinase Profiler panel; type: biochemical; settings: read-out: % inhibition (1μM), DMSO control=100%, lower=stronger
T20 construct: purchased Eurofins Pharma Discovery Services UK Limited (Kinase Profiler screening platform)
Description: as §1

CDK9 = biological target: T21, CDK9 (Homo sapiens, UniProt P50750); assay: Eurofins Kinase Profiler panel; type: biochemical; settings: read-out: % inhibition (1μM), DMSO control=100%, lower=stronger
T21 construct: purchased Eurofins KinaseProfiler (Eurofins Pharma Discovery Services UK, Dundee); JAK3 also ChemPartner
Description: as §1

Flt1 = biological target: T22, Flt1 (Homo sapiens, UniProt P17948); assay: Eurofins Kinase Profiler panel; type: biochemical; settings: read-out: % inhibition (1μM), DMSO control=100%, lower=stronger
T22 construct: purchased Eurofins Pharma Discovery Services UK Limited (Kinase Profiler screening platform)
Description: as §1

TrkB = biological target: T23, TrkB (Homo sapiens, UniProt Q16620); assay: Eurofins Kinase Profiler panel; type: biochemical; settings: read-out: % inhibition (1μM), DMSO control=100%, lower=stronger
T23 construct: purchased Eurofins Pharma Discovery Services UK Limited (Kinase Profiler screening platform)
Description: as §1

CK1 = assay: Eurofins Kinase Profiler panel; type: biochemical; settings: read-out: % inhibition (1μM), DMSO control=100%, lower=stronger
Description: as §1

Mer = biological target: T24, Mer (Homo sapiens, UniProt Q12866); assay: Eurofins Kinase Profiler panel; type: biochemical; settings: read-out: % inhibition (1μM), DMSO control=100%, lower=stronger
T24 construct: purchased Eurofins KinaseProfiler (Eurofins Pharma Discovery Services UK, Dundee); JAK3 also ChemPartner
Description: as §1

DYRK1B = biological target: T25, DYRK1B (Homo sapiens, UniProt Q9Y463); assay: Eurofins Kinase Profiler panel; type: biochemical; settings: read-out: % inhibition (1μM), DMSO control=100%, lower=stronger
T25 construct: Eurofins Pharma Discovery Services UK Limited (Kinase Profiler service)
Description: as §1

SAPK2b = biological target: T26, SAPK2b (Homo sapiens, UniProt Q15759); assay: Eurofins Kinase Profiler panel; type: biochemical; settings: read-out: % inhibition (1μM), DMSO control=100%, lower=stronger
T26 construct: purchased Eurofins KinaseProfiler (Eurofins Pharma Discovery Services UK, Dundee); JAK3 also ChemPartner
Description: as §1

PKA = biological target: T27, PKA (Homo sapiens, UniProt P17612); assay: Eurofins Kinase Profiler panel; type: biochemical; settings: read-out: % inhibition (1μM), DMSO control=100%, lower=stronger
T27 construct: purchased Eurofins KinaseProfiler (Eurofins Pharma Discovery Services UK, Dundee); JAK3 also ChemPartner
Description: as §1

FAK = biological target: T28, FAK (Homo sapiens, UniProt Q05397); assay: Eurofins Kinase Profiler panel; type: biochemical; settings: read-out: % inhibition (1μM), DMSO control=100%, lower=stronger
T28 construct: Eurofins Pharma Discovery Services UK Limited (Kinase Profiler service)

Lck = biological target: T29, Lck (Homo sapiens, UniProt P06239); assay: Eurofins Kinase Profiler panel; type: biochemical; settings: read-out: % inhibition (1μM), DMSO control=100%, lower=stronger
T29 construct: purchased Eurofins KinaseProfiler (Eurofins Pharma Discovery Services UK, Dundee); JAK3 also ChemPartner

[2] = test system: IL-3-induced JAK/STAT5 phosphorylation in TF-1 cells (JAK2); assay: STAT5 phosphorylation induced by IL-3 in TF-1 cells, Western blot
MAPK1 = biological target: T30, MAPK1 (Homo sapiens, UniProt P27361); assay: Eurofins Kinase Profiler panel; type: biochemical; settings: read-out: % inhibition (1μM), DMSO control=100%, lower=stronger
T30 construct: purchased Eurofins KinaseProfiler (Eurofins Pharma Discovery Services UK, Dundee); JAK3 also ChemPartner

JNK1α1 = biological target: T31, JNK1α1 (Homo sapiens, UniProt P45983); assay: Eurofins Kinase Profiler panel; type: biochemical; settings: read-out: % inhibition (1μM), DMSO control=100%, lower=stronger
T31 construct: purchased Eurofins KinaseProfiler (Eurofins Pharma Discovery Services UK, Dundee); JAK3 also ChemPartner

[3] = test system: IFN-α2b-induced JAK/STAT1 phosphorylation in U2OS cells (JAK1); assay: STAT1 phosphorylation induced by IFN-α2b in U2OS cells, Western blot
Flt3 = biological target: T32, Flt3 (Homo sapiens, UniProt P36888); assay: Eurofins Kinase Profiler panel; type: biochemical; settings: read-out: % inhibition (1μM), DMSO control=100%, lower=stronger
T32 construct: purchased Eurofins Pharma Discovery Services UK Limited (Kinase Profiler screening platform)

[4] = test system: JAK-STAT pathway in joints of CIA mice; assay: JAK/STAT phosphorylation in joint tissue of CIA mice, Western blot; type: in vivo, mouse; settings: dose-dependent
Description: Proteins were visualized with enhanced chemiluminescence.

FGFR1 = biological target: T33, FGFR1 (Homo sapiens, UniProt P11362); assay: Eurofins Kinase Profiler panel; type: biochemical; settings: read-out: % inhibition (1μM), DMSO control=100%, lower=stronger
T33 construct: purchased Eurofins Pharma Discovery Services UK Limited (Kinase Profiler screening platform)

[5] = test system: other kinases of the conserved cysteine panel (BMX, BTK, ITK, TXK, TEC, BLK, EGFR, ERBB4, ERBB2); assay: Cys-containing kinase family panel, kinases other than JAK3 taken together; type: biochemical; settings: 1 µM
Description: as §1

T17 sequence (P49760 whole entry): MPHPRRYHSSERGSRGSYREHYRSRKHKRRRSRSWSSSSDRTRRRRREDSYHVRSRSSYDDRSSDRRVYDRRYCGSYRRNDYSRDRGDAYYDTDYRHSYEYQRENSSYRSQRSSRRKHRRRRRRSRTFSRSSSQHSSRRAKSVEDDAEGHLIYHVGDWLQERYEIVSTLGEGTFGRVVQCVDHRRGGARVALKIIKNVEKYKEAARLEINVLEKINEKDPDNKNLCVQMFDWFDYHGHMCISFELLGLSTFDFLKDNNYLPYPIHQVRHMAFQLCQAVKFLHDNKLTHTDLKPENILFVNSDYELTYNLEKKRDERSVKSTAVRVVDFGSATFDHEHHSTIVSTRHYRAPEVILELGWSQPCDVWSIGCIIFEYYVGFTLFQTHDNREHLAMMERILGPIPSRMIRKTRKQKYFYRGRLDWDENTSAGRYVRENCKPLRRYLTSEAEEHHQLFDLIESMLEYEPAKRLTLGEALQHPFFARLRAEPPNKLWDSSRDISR
T25 sequence (Q9Y463 whole entry): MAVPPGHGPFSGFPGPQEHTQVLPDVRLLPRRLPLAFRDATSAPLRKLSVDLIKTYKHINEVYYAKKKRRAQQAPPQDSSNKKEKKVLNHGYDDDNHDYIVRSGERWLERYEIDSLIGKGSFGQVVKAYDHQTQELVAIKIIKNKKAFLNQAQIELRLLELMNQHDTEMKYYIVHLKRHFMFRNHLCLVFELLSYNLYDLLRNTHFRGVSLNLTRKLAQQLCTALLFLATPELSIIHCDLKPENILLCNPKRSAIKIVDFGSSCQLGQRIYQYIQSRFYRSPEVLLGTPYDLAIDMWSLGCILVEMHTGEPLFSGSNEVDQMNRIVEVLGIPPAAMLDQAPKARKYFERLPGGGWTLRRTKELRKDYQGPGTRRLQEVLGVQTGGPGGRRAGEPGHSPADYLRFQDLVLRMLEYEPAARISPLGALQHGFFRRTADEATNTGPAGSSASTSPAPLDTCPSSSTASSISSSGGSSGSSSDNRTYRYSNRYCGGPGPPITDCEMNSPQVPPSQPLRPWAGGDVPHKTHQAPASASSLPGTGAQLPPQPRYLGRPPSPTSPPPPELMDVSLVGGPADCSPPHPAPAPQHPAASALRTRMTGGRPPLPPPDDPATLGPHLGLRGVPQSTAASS
T28 sequence (Q05397 whole entry): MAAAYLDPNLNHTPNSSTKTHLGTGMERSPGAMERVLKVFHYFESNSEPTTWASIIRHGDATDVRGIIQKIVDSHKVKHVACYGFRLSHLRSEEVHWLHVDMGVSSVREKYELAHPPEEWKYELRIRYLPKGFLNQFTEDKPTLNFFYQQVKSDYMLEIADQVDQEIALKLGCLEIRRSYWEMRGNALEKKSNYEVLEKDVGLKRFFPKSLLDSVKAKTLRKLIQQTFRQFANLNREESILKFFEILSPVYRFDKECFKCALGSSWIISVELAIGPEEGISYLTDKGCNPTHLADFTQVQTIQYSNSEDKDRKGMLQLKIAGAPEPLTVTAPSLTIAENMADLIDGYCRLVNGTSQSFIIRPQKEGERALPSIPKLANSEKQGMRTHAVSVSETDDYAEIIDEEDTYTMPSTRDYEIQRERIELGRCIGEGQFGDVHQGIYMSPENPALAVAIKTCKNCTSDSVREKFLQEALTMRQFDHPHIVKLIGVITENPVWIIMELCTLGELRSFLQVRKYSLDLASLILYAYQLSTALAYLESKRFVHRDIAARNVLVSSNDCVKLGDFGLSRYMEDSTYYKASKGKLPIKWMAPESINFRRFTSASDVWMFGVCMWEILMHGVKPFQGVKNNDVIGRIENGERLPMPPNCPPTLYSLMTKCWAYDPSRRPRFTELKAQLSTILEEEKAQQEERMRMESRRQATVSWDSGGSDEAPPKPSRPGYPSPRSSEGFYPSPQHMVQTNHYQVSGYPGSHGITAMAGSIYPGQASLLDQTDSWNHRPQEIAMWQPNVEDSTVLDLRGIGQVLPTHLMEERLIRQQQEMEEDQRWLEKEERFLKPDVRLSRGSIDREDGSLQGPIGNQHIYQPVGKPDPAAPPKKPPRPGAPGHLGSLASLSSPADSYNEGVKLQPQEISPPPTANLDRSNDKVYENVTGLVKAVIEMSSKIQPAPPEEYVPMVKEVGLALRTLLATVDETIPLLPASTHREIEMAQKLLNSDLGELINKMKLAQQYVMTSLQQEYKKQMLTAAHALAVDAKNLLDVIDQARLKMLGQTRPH
T22 sequence (P17948 27-1338): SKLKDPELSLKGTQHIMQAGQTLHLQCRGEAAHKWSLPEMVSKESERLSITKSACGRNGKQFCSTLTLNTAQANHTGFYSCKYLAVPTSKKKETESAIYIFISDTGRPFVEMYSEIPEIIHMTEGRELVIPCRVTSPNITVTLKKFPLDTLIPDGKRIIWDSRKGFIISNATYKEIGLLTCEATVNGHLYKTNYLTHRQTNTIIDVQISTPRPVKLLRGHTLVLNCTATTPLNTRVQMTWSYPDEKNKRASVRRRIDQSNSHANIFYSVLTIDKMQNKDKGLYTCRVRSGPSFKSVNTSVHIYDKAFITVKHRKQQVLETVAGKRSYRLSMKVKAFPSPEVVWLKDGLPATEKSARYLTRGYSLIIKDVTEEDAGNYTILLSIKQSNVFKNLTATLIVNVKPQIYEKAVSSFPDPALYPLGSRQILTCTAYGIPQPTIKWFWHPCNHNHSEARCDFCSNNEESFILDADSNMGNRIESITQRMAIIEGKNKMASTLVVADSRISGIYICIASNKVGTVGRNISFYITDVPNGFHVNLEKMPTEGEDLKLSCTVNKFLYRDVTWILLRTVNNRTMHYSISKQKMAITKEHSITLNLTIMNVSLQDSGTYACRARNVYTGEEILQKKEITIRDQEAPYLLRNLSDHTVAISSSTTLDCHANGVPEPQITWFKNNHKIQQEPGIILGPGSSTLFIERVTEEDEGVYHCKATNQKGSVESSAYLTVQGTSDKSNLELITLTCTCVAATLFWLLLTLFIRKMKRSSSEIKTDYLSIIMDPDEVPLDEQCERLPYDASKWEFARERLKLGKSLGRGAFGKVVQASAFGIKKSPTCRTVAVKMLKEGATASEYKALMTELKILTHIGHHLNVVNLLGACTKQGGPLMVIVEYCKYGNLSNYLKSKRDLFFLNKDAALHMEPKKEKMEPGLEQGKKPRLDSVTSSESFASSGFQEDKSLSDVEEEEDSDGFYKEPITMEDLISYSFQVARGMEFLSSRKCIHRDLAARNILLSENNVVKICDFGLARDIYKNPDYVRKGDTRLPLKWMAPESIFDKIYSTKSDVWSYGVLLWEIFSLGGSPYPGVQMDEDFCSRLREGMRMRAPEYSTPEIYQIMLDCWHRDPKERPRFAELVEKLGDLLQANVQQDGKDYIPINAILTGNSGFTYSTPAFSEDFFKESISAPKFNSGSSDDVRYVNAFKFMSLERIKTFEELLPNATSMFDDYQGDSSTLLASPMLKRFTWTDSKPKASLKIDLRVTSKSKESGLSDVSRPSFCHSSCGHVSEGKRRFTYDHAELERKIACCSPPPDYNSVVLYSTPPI
T8 sequence (P50613 whole entry): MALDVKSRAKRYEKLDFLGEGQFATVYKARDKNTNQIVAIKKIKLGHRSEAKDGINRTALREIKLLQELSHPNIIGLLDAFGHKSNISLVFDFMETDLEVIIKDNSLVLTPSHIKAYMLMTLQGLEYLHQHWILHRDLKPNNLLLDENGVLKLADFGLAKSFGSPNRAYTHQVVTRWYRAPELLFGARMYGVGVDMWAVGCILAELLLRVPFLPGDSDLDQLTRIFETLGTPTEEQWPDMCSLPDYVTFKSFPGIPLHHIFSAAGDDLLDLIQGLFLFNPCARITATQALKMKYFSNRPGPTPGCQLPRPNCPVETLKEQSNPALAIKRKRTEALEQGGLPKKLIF
T8 sequence (P51946 whole entry partner): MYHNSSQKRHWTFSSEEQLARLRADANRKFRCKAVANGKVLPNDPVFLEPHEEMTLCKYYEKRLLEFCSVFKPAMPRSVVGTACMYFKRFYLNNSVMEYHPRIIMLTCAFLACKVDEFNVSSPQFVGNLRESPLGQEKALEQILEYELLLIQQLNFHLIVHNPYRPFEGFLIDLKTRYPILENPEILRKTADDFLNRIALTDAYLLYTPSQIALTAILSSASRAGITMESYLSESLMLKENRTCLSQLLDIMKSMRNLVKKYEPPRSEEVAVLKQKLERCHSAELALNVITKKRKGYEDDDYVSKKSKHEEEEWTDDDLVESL
T8 sequence (P51948 whole entry partner): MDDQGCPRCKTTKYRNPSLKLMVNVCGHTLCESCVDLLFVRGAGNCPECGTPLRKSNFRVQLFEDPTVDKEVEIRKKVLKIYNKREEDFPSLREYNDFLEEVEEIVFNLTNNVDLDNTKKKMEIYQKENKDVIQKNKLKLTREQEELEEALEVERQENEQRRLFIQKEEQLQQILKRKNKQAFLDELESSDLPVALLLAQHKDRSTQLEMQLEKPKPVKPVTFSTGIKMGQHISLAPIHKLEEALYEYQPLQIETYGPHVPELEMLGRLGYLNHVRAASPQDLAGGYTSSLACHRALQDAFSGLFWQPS
T31 sequence (P45983 1-384 isoform P45983-2): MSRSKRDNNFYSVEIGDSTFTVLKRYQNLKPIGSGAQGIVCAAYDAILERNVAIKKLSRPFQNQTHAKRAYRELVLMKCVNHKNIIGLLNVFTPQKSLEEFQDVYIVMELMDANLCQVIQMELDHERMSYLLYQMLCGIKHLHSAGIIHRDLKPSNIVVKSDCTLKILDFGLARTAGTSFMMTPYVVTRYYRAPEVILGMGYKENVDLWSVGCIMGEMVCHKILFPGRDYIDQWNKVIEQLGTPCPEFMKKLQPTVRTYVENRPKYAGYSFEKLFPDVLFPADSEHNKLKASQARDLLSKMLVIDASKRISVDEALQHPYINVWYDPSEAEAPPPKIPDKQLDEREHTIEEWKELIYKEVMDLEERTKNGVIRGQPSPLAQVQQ

Question: Which results are given for `C=CC(=O)N[C@@H]1CCCN(c2ncnc3[nH]ccc23)C1` [RB1]?
Answer: activity at 1 µM (IKKα): 97%; activity at 1 µM (JNK2α2): 109%; activity at 1 µM (MEK1): 92%; adverse effects on body weight, behaviour or appetite (SD rats): no observable adverse effects; LD50 [1]: > 2000 mg/kg; activity at 1 µM (DDR1): 75%; activity at 1 µM (Ret): 86%; activity at 1 µM (Syk): 104%; activity at 1 µM (ROCK-II): 88%; activity at 1 µM (CDK7): 95%; activity at 1 µM (CaMKIIβ): 85%; activity at 1 µM (Pim-1): 62%; activity at 1 µM (SAPK2a): 100%; activity at 1 µM (DYRK1A): 91%; activity at 1 µM (PKBα): 94%; activity at 1 µM (PDGFRα): 96%; activity at 1 µM (NEK2): 99%; activity at 1 µM (PRK2): 79%; IC50 (CLK2; estimated): > 0.8 µM; activity at 1 µM (CLK2; read-out: % inhibition (1μM), 1 µM, DMSO control=100%, lower=stronger): 18%; activity at 1 µM (SAPK3): 94%; activity at 1 µM (PKCζ): 106%; activity at 1 µM (MSK1): 74%; activity at 1 µM (CDK9): 101%; activity at 1 µM (Flt1): 93%; activity at 1 µM (TrkB): 38%; activity (CK1): 82%; activity at 1 µM (Mer): 68%; activity at 1 µM (DYRK1B): 86%; activity at 1 µM (SAPK2b): 103%; activity at 1 µM (PKA): 85%; activity at 1 µM (FAK): 72%; activity at 1 µM (Lck): 80%; IC50 ([2]; Homo sapiens): > 50 µM; Selectivity JAK2/JAK3 ([2]; IL-3, pSTAT5): > 1000; activity at 1 µM (MAPK1): 85%; activity at 1 µM (JNK1α1): 101%; IC50 ([3]; Homo sapiens, read-out: IC50, STAT and JAK phosphorylation): > 50 µM; Selectivity JAK1/JAK3 ([3]; IFN-α2B, pSTAT1): > 1000; activity at 1 µM (Flt3): 75%; phosphorylation status of JAKs and STATs in joint tissue [4]: hypo-phosphorylation of JAK3, STAT1 and STAT3; activity at 1 µM (FGFR1): 80%; inhibition of other kinases of the conserved cysteine panel [5]: less than 15%
